Converted amounts (≈) assume the structure as drawn. Read-outs that look alike come from different tables or passages of the source.
Legend:
Format in all cases: cell-based
E. coli W3110PA = test: microbe, parasite or virus in culture; conditions: for MIC: Escherichia coli, W3110PA, 22 h, read-out: MIC E. coli W3110PA
P. aeruginosa (PAO1) = test: MIC, P. aeruginosa; conditions: for MIC: Pseudomonas aeruginosa, read-out: MIC P. aeruginosa (PAO1)
E. coli W3110RL = test: microbe, parasite or virus in culture; conditions: for MIC: Escherichia coli, W3110RL, 22 h, read-out: MIC E. coli W3110RL
E. coli W3110 = test: microbe, parasite or virus in culture; conditions: for MIC: Escherichia coli, W3110, 22 h, read-out: MIC E. coli W3110
[1] = P. aeruginosa PAO1, 22 hours at 37° C., MTT

Compound | MIC (E. coli W3110PA) [µg/mL] | MIC (E. coli W3110RL) [µg/mL] | MIC (E. coli W3110) [µg/mL] | MIC (P. aeruginosa (PAO1); PAO1, 22 h) [µg/mL] | other results
O=C(NO)C(Cc1ccc2ccccc2c1)NS(=O)(=O)c1ccc2ccccc2c1 (stereo not shown) | > 100 | > 100 | 1 to 10 (≈ 2.38 to 23.8 µM) |  | MIC (P. aeruginosa (PAO1); [1]): > 100 µg/mL
C[C@@H](O)[C@H](NC(=O)c1ccc(C#Cc2ccccc2)cc1)C(=O)NO | < 1 | > 100 | < 1 |  | MIC (P. aeruginosa (PAO1); [1]): 1 to 10 µg/mL (≈ 2.96 to 29.6 µM)
CCCc1cc(C2=N[C@@H](C(=O)NO)CO2)cc(OC)c1OC | > 100 | > 100 |  |  | 
C[C@@H](O)[C@H](NC(=O)c1ccc(C#CC#CCN(C)C)cc1)C(=O)NO [CPD-007, 4-(5-(dimethylamino)penta-1,3-diynyl)-N-((2S,3R)-3-hydroxy-1-(hydroxyamino)-1-oxobutan-2-yl)benzamide] | 1 to 10 (≈ 2.91 to 29.1 µM) | > 100 | 1 to 10 (≈ 2.91 to 29.1 µM) | 1 to 10 (≈ 2.91 to 29.1 µM) | 
C[C@@H](O)[C@H](NC(=O)c1ccc(C#CC#Cc2ccccc2)cc1)C(=O)NO [CPD-009, N-((2S,3R)-3-hydroxy-1-(hydroxyamino)-1-oxobutan-2-yl)-4-(phenylbuta-1,3-diynyl)benzamide] | < 1 | 1 to 10 (≈ 2.76 to 27.6 µM) | < 1 | < 1 | 
Nc1ccc(C#CC#Cc2ccc(C(=O)N[C@@H](Cc3c[nH]cn3)C(=O)NO)cc2)cc1 [CPD-014, (2S)-2-({4′-[4′-(4′-aminophenyl)buta-1′,3′-diyn-1′-yl]phenyl}formamido)-N-hydroxy-3-(1′H-imidazol-4′-yl)propanamide] |  |  |  |  | MIC E. coli W3110PA (E. coli W3110PA; E. coli with lpxC of P. aeruginosa, 22 hours at 37° C., MTT): B (1-10 μg/mL); MIC P. aeruginosa (PAO1) (P. aeruginosa (PAO1); [1]): B (1-10 μg/mL); MIC E. coli W3110RL (E. coli W3110RL; E. coli with lpxC of R. leguminosarum, 22 hours at 37° C., MTT): E (>100 μg/mL); MIC E. coli W3110 (E. coli W3110): A (key: A: <1 μg/mL; B: 1-10 μg/mL; C: 11-50 μg/mL; D: 51-100 μg/mL; E: >100 μg/mL)
Nc1cccc(C#CC#Cc2ccc(C(=O)N[C@@H](Cc3c[nH]cn3)C(=O)NO)cc2)c1 [CPD-015, (2S)-2-({4′-[4′-(3′-aminophenyl)buta-1′,3′-diyn-1′-yl]phenyl}formamido)-N-hydroxy-3-(1′H-imidazol-4′-yl)propanamide] | 51 to 100 (≈ 123 to 242 µM) | > 100 | < 1 | 1 to 10 (≈ 2.42 to 24.2 µM) | 
Nc1ccccc1C#CC#Cc1ccc(C(=O)N[C@@H](Cc2c[nH]cn2)C(=O)NO)cc1 [CPD-016, (2S)-2-({4′-[4′-(2′-aminophenyl)buta-1′,3′-diyn-1′-yl]phenyl}formamido)-N-hydroxy-3′-(1′H-imidazol-4′-yl)propanamide] | 51 to 100 (≈ 123 to 242 µM) | > 100 | 1 to 10 (≈ 2.42 to 24.2 µM) | > 100 | 
C[C@@](O)(C(F)F)[C@H](NC(=O)c1ccc(C#Cc2ccc(CN3CCOCC3)cc2)cc1)C(=O)NO [CPD-069, N-((2S,3S)-4,4-difluoro-3-hydroxy-1-(hydroxyamino)-3-methyl-1-oxobutan-2-yl)-4-((4-(morpholinomethyl)phenyl)ethynyl)benzamide] |  |  | < 1 | 1 to 10 (≈ 2.05 to 20.5 µM) | 
Nc1ccc(C#CC#Cc2ccc(C(=O)N[C@@H]3CN(O)C3=O)cc2)cc1 [CPD-071, (R)-4-((4-aminophenyl)buta-1,3-diynyl)-N-(1-hydroxy-2-oxoazetidin-3-yl)benzamide] |  |  | 1 to 10 (≈ 2.9 to 29 µM) | 51 to 100 (≈ 148 to 290 µM) | 
C[C@](O)(c1c[nH]nn1)C(NC(=O)c1ccc(C#CC#Cc2ccc(N)cc2)cc1)C(=O)NO (stereo partly drawn) [CPD-072, 4-((4-aminophenyl)buta-1,3-diynyl)-N-((3R)-3-hydroxy-1-(hydroxyamino)-1-oxo-3-(1H-1,2,3-triazol-4-yl)butan-2-yl)benzamide] |  |  | < 1 | < 1 | 
C[C@@](N)(C(F)F)C(NC(=O)c1ccc(C#CC#Cc2ccc(N)cc2)cc1)C(=O)NO (stereo partly drawn) [CPD-079, N-((3S)-3-amino-4,4-difluoro-1-(hydroxyamino)-3-methyl-1-oxobutan-2-yl)-4-((4-aminophenyl)buta-1,3-diynyl)benzamide] |  |  | < 1 | < 1 | 
C[C@@](N)(C(F)F)[C@H](NC(=O)c1ccc(C#Cc2ccc(CN3CCOCC3)cc2)cc1)C(=O)NO [CPD-080, N-((2S,3S)-3-amino-4,4-difluoro-1-(hydroxyamino)-3-methyl-1-oxobutan-2-yl)-4-((4-(morpholinomethyl)phenyl)ethynyl)benzamide] |  |  | < 1 | < 1 | 

Source: patent US9738604B2, “Ethynylbenzene derivatives” (Duke University, priority 2010, dated 2017)
